We go through eleven compounds from patent publication US11142546B2, “Neuropeptide S receptor (NPSR) agonists” (Research Triangle Institute, priority 2016, dated 2021).

pEC50: −log10 of the molar value.

Assay [1] addresses T1, human NPS receptor variants (NPS Ile107 and Asn107) (Homo sapiens, UniProt Q6W5P4).
T1 sequence (Q6W5P4 1-371 N107I): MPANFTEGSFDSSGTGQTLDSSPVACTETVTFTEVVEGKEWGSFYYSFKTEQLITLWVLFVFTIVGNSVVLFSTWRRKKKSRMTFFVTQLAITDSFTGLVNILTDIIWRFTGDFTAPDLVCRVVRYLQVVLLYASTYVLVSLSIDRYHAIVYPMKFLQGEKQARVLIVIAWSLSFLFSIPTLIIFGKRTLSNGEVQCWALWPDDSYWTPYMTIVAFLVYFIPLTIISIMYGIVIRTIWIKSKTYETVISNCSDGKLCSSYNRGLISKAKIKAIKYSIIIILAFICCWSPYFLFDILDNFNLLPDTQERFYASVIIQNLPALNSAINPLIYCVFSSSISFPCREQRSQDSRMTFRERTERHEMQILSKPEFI
Briefly: Functional determination of EC50 by calcium mobilization in RD-HGA16 CHO cells overexpressing the NPS receptor. The class given is cell-based. The settings on record: FlexStation, mean of at least three independent experiments, receptor variant not given. The text has this: Functional Determinations of EC50: Identification of functional agonists at the NPS receptor was done utilizing RD-HGA16 cells (Molecular Devices), a Chinese Hamster Ovary cell line stably expressing the promiscuous Gq-protein Gα16. RD-HGA16 cells were engineered to stably overexpress the NPS receptor. Two individual cell lines were created that stably express one of two human NPS receptor variants (NPS Ile107 and Asn107). Cells were loaded with a calcium sensitive dye (Molecular Devices) for 1 h at 370 C and compounds were assayed in separate experiments for intrinsic activity as measured by increased fluorescence intensity as a marker of mobilization of internal calcium stores using a FlexStation fluorescence plate reader. Compounds were run as 8-point full log or half log concentration curves in duplicate in order to determine the EC50 of the test compound. Each compound was tested in at least three independent experiments. A three-parameter logistic equation was fit to the concentration response data with Prism Software (v5 for Windows, GraphPad Software; San Diego, Calif.) to calculate the EC50 values. The data represent the mean±SEM from at least three independent experiments. Table 1 lists the EC50 for certain compounds of Formula I or Formula II.
Background: A change in cytosolic calcium serves as a functional read-out for many receptors and channels.

Assay [2] deals with T2, NPSR-C-Alt (Homo sapiens, UniProt Q6W5P4).
T2 sequence (Q6W5P4 1-377 isoform Q6W5P4-4): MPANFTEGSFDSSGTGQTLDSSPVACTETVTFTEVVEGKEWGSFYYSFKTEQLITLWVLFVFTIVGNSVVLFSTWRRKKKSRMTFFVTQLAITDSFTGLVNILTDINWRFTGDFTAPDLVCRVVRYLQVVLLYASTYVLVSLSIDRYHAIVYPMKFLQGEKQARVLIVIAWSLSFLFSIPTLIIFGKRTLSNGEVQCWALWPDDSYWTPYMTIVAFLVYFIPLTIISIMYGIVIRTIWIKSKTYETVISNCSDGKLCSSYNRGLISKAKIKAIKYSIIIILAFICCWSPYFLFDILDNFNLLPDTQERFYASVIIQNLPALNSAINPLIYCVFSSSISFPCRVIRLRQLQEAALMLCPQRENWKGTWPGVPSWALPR
As to the kind of experiment: Functional assay of NPS receptor isoforms. The class given is cell-based. Particulars: least potent at NPSR-C-Alt. As to the method: The neuropeptide S receptor has at least three known isoforms including the wild type NPS Asn^107, the NPS Asn107Ile and NPS C-Alt. Since each variant could potentially have functional difference, the agonist sensitivity of each isoform was evaluated.

In general, pEC50 refers to the EC50 on a negative log10 scale, so that one unit is a factor of ten. Regarding `NC(=O)[C@H]1CCCC[C@@H]1OC(=O)CNC(=O)[C@H](Cc1ccccc1)NC(=O)c1ccccc1` [Compound R06039-636, (1S,2S)-2-carbamoylcyclohexyl-2-[(2S)-3-phenyl-2-(phenylformamido)propanamido]acetate], in assay [1], the pEC50 was 7.03. On the same count and under the same terms, to `NC(=O)[C@@H]1CCCC[C@H]1NC(=O)CNC(=O)[C@H](Cc1ccccc1)OCc1ccccc1` [Compound R06039-641, Trans-2-(2-((S)-2-(benzyloxy)-3-phenylpropanamido)acetamido)cyclohexanecarboxamide] belongs 6.77. On the same count and under the same terms, to `NC(=O)[C@H]1CCCC[C@@H]1NC(=O)CNC(=O)/C=C/c1ccccc1` (racemic) [Compound R06039-655, (1R/S,2S/R)-2-(2-cinnamamidoacetamido)cyclohexanecarboxamide] belongs 5.68; to `NC(=O)[C@H]1CCCC[C@@H]1NC(=O)CNC(=O)C(Cc1ccccc1)c1ccccc1` (some centres unmarked) [Compound R06039-657, (1R/S,2S/R)-2-(2-(2,3-diphenylpropanamido)acetamido)cyclohexanecarboxamide], 6.05. Take “hNPS: Human neuropeptide S, 20 residue peptide with the primary sequence SFRNGVGTGMKKTSFQRAKS (SEQ ID NO: 1) (Human)”: in assay [2], the “potency at NPSR-C-Alt, fold lower versus the 107I variant” value turned out to be 30 fold. Take `NCCCC[C@H](NC(=O)C(CCc1ccccc1)Cc1ccccc1)C(=O)NC1C2CCC(CC2)C1C(N)=O` (stereo partly drawn) [Compound R06039-696, 3-[(2S)-6-amino-2-(2-benzyl-4-phenylbutanamido)hexanamido]bicyclo[2.2.2]octane-2-carboxamide]: the pEC50 in assay [1] was 7.04. For the compound `NC(=O)[C@H]1CCCC[C@@H]1NC(=O)CNC(=O)C(Cc1ccccc1)Cc1ccccc1` (racemic) [Compound R06039-656, (1R/S,2S/R)-2-(2-(2-benzyl-3-phenylpropanamido)acetamido)cyclohexanecarboxamide], the pEC50 in assay [1] was 5.99. The same measure, in the same setting: to `NC(=O)C1C2CCC(CC2)C1NC(=O)CNC(=O)C(CCc1ccccc1)Cc1ccccc1` (centres unmarked) [Compound R06039-691, 3-[2-(2-Benzyl-4-phenylbutanamido)acetamido]bicyclo[2.2.2]octane-2-carboxamide] belongs 7.03; to `NCCCC[C@H](NC(=O)C(CCc1ccccc1)Cc1ccccc1)C(=O)NC1CCCCC1C(N)=O` (stereo partly drawn) [Compound R06039-693, 2-[(2S)-6-amino-2-(2-benzyl-4-phenylbutanamido)hexanamido]cyclohexane-1-carboxamide], 7.11; to `NC(=O)[C@@H]1CCCC[C@H]1NC(=O)CNC(=O)C(CCC1CCCCC1)Cc1ccccc1` (relative stereo) [Compound R06039-682, Trans-2-(2-(2-Benzyl-4-cyclohexylbutanamido)acetamido)cyclohexanecarboxamide], 6.05.

Turning to `NC(=O)[C@@H]1CCCC[C@H]1NC(=O)CNC(=O)/C(=C/c1ccccc1)CCc1ccccc1` (relative stereo) [Compound R06039-675, Trans-2-(2-((E)-2-Benzylidene-4-phenylbutanamido)acetamido)cyclohexanecarboxamide], the pEC50 in assay [1] is 6.67.
